What all share (assay): relative viability (nuclei count vs DMSO), 5 days (fraction); higher = more cells survive
Compound in assay [1]: C=CC(=O)N1CCC[C@@H](n2nc(-c3ccc(Oc4ccccc4)cc3)c3c(N)ncnc32)C1 [Ibrutinib] + C[C@@H](Oc1cc(-c2cnn(C3CCNCC3)c2)cnc1N)c1c(Cl)ccc(F)c1Cl [Crizotinib] (partner 1 µM)
In a few lines:
(§1)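 Lung cancer cell lines, seeded in 1536-well plates, were treated the following day by pin tool with a single drug or with five library-drug doses (not always all listed) in √10 steps on top of a fixed anchor-drug dose. Cells were fixed and nuclei stained in one step after 5 days, and nuclei were counted. Relative viability is the nuclei count for treated wells divided by that for vehicle wells, reported as medians of duplicate plates.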

Compound in assay [2]: C=CC(=O)Nc1cc(-n2c(=O)ccc3cnc4ccc(-c5ccc(NS(C)(=O)=O)cc5)cc4c32)ccc1C [BMX-IN-1] + O=C(c1cc(Cc2n[nH]c(=O)c3ccccc23)ccc1F)N1CCN(C(=O)C2CC2)CC1 [Olaparib] (partner 8 µM)
In a few lines:
as §1

Compound in assay [3]: C=CC(=O)N1CCC[C@@H](n2nc(-c3ccc(Oc4ccccc4)cc3)c3c(N)ncnc32)C1 [Ibrutinib] + CC(=O)c1c(C)c2cnc(Nc3ccc(N4CCNCC4)cn3)nc2n(C2CCCC2)c1=O [Palbociclib] (partner 0.5 µM)
The gist of the method:
as §1

Compound in assay [4]: C=CCc1cccc(/C=N/NC(=O)CN2CCN(Cc3ccccc3)CC2)c1O [PAC-1] + Cc1cc(Nc2cc(N3CCN(C)CC3)nc(Sc3ccc(NC(=O)C4CC4)cc3)n2)n[nH]1 [Tozasertib] (partner 0.1 µM)
The gist of the method: as §1

The values that follow come from the supplement of paper PMC10307832.

Regarding SK-MES-1, the relative viability in assay [1] (first compound 0.005 µM) is 0.984; in assay [1] (first compound 0.01581 µM), 0.907; in assay [1] (first compound 0.05 µM), 1.02; in assay [1] (first compound 0.5 µM), 0.555; in assay [2] (first compound 0.02 µM), 0.754; in assay [2] (first compound 0.2 µM), 0.811. For the same cell line, the relative viability in assay [2] (first compound 0.6325 µM) was determined as 0.961; in assay [2] (first compound 2 µM) it was 0.625; in assay [3] (first compound 0.005 µM), 0.337; in assay [3] (first compound 0.01581 µM), 0.324; in assay [3] (first compound 0.05 µM), 0.382; in assay [3] (first compound 0.1581 µM), 0.366. Besides, the relative viability was found to be 0.245 in assay [3] (first compound 0.5 µM); 0.9 in assay [4] (first compound 0.02 µM); 0.916 in assay [4] (first compound 0.06325 µM); 0.892 in assay [4] (first compound 0.2 µM); 0.916 in assay [4] (first compound 2 µM).
